Experimental findings from patent US20260199484A1, “PROTAC DEGRADERS OF MLLT1 AND/OR MLLT3” (DARK BLUE THERAPEUTICS LTD, priority 2024, published 2026) are described below.

Experiment [1] addresses T1, MLLT3 (Mus musculus, UniProt A2AM29).
T1 construct: endogenous in cells; host or cells: NIH/3T3 (ATCC CRL-1658)
T1 sequence (A2AM29 1-569): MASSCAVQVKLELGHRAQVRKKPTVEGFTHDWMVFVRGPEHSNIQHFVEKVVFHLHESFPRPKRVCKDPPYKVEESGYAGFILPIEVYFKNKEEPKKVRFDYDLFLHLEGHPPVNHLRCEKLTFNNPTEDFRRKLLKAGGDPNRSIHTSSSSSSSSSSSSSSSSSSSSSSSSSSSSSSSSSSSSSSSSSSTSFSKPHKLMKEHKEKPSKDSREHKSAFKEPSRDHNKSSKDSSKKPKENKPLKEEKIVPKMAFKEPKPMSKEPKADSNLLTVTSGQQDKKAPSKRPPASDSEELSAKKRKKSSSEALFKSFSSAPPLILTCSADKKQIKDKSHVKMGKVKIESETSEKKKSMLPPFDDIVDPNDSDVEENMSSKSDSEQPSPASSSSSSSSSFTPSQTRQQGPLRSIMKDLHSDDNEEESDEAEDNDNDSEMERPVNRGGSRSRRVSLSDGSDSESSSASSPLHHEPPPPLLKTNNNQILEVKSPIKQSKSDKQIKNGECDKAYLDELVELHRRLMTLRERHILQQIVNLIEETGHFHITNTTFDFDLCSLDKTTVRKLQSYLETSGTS
As to the kind of experiment: MLLT3 degradation assay in NIH/3T3 cells (JESS, 5 h). The class given is cell-based. The protocol:
MLLT3 degradation efficacy of compounds was tested in an automated chemiluminescent detection system (JESS, Cat #004-650). NIH/3T3 (#CRL-1658, ATCC) were seeded at a density of 0.5 million cells/well in a cell culture treated 6-well cell culture plate in 2 mL of complete medium (DMEM+10% FBS+1× Penicillin-Streptomycin) and incubated at 37° C., 5% CO2. The next day, 10 mM DMSO stocks were prepared, and cells were treated with eight concentrations of test compounds, starting from 100 nM, 5-fold dilution, at a final DMSO concentration of 0.1% and incubated for 5 h at 37° C., 5% CO2. Post incubation, cells were washed with HBSS and lysed in 70 μL of RIPA buffer supplemented with Protease inhibitors (sc-24948; Santa Cruz). Later, protein estimation was done using BCA protein assay kit (23228; Pierce). 4 gg protein lysate (4 μL of 1 μg/μL lysate) was loaded into each well of the JESS cartridge (SM-W004; Bio-techne) and the JESS run was performed using 1:200 dilution of anti-mouse MLLT3 antibody (#47577; CST) and 1:800 dilution of anti-human GAPDH antibody (2118; Cell signaling technology) with anti-rabbit secondary detection module (DM-001; Bio-Techne). Post run, data was analysed using “Compass for SW” software for chemiluminescent detection. Peak fit was done using “dropped lines” method. […]

The target of experiment [2] is T2, MLLT1 (Homo sapiens, UniProt Q03111).
T2 sequence (Q03111 1-559): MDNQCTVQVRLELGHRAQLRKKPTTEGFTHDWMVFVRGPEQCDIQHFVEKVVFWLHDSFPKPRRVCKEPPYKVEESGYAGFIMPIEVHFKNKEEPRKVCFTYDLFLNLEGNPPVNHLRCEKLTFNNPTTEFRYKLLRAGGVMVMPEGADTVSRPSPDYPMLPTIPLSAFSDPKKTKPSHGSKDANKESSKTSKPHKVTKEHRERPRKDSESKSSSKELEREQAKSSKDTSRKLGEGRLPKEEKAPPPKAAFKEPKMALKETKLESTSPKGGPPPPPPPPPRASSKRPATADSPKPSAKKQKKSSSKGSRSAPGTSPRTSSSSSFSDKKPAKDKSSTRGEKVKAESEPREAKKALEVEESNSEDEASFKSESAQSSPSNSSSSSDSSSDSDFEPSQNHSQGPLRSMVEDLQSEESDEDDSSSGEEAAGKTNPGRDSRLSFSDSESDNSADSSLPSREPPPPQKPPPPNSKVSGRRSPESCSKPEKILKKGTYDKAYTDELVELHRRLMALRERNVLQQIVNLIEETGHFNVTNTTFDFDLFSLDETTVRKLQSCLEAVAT
As to the kind of experiment: MLLT1 degradation assay in MV4-11 cells (JESS, 24 h). Also noted: endogenous in cells; host or cells: MV4-11 (ATCC CRL-9591). The following applies: vs DMSO control. The class given is cell-based. The method, boiled down: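 MV4-11 cells treated at 1000, 100 and 10 nM (0.1% DMSO) for 24 h at 37° C; lysates (4 ug protein) run on JESS capillary immunoassay with MLLT1 and GAPDH antibodies. Peak areas give % degradation versus DMSO, binned A (≥75%) to D (<25%).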

In turn, `Cc1nn(CCCCCCCC#Cc2cccc3c2CN(C2CCC(=O)NC2=O)C3=O)c2cc(C(=O)Nc3cc4[nH]c([C@H]5CCCN5C)cc4cn3)ccc12` (mixture of isomers) [Example 1, 1-(9-(2-(2,6-dioxopiperidin-3-yl)-1-oxoisoindolin-4-yl)non-8-yn-1-yl)-3-methyl-N-(2-((R)-1-methylpyrrolidin-2-yl)-1H-pyrrolo[3,2-c]pyridin-6-yl)-1H-indazole-6-carboxamide] had a DC50 in experiment [1] of 1.6 nM. In experiment [1] (NIH3T3, maximum % degradation observed), the Dmax worked out at 85%. Moreover, the “MLLT1% Degradation @ 0.01 μM” value in experiment [2] (0.01 μM) was “A (Category A: A≥75% degradation)”. Moreover, the “MLLT1% Degradation @ 0.1 μM” value in experiment [2] (0.1 μM) was “A (Category A: A≥75% degradation)”. In addition, in experiment [2] (1 μM), the “MLLT1% Degradation @ 1 μM” value is “A (Category A: A≥75% degradation)”.
